Article PMC6717788 (The Korean Journal of Physiology & Pharmacology : …, 2019)

Columns and labels:
[1] = target: T1, Slo3 (potassium channel subfamily U member 1, KCNU1) (Homo sapiens, UniProt A8MYU2); assay: whole-cell patch clamp, HEK293 cells, […] single dose; type: cell-based; conditions: HEK293, read-out: % inhibition at 50 μM
T1 sequence (A8MYU2 1-1149): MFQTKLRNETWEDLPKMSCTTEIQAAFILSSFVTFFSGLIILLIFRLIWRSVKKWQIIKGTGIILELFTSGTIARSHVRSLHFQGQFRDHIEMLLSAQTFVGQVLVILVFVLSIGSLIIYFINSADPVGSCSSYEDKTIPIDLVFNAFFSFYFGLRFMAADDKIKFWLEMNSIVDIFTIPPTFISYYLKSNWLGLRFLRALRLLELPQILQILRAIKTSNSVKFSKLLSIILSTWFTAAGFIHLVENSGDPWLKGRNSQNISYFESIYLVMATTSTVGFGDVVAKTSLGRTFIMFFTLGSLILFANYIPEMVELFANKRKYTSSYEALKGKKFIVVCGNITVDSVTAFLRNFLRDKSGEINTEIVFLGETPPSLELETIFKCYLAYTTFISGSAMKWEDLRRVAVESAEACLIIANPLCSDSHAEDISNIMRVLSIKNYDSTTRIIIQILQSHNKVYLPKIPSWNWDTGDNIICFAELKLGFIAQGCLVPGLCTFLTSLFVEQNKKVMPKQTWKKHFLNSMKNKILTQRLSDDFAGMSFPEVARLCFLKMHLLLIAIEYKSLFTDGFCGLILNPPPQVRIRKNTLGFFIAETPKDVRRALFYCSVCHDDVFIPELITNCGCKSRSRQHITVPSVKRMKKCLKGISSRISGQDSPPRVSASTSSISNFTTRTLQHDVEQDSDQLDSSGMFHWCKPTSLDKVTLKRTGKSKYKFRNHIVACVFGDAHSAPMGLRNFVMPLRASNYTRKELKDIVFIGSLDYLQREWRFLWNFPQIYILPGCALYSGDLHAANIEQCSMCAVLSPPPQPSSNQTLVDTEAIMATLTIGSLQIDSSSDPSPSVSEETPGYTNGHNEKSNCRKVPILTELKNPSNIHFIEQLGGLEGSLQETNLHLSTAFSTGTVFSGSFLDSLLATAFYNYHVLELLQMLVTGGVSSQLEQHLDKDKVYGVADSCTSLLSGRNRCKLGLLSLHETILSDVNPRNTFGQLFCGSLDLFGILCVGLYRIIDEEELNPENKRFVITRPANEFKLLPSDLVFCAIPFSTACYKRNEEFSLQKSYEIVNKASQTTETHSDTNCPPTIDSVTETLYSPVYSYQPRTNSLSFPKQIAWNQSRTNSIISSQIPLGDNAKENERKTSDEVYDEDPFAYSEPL
T1 sequence (Q8N7C0 24-313 partner): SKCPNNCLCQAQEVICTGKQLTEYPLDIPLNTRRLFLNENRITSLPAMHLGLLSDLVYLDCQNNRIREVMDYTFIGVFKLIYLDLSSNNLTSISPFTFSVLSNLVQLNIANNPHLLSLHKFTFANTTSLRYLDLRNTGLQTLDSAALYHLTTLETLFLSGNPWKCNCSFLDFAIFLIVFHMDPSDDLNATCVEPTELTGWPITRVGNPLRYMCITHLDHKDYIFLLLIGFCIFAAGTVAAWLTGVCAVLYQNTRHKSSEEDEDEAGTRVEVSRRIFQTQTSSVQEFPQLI

[2] = target: T1, Slo3 (potassium channel subfamily U member 1, KCNU1); assay: whole-cell patch clamp, HEK293 cells, dose response; type: cell-based

| inhibition at 50 µM [1] | SMILES | EC50 [2] |
| --- | --- | --- |
| 53.5 ± 3.15% | O=c1cc(-c2ccc(O)c(O)c2)oc2cc(O)cc(O)c12 [luteolin] |  |
| 42.1 ± 2.16% | O=c1c(O)c(-c2ccc(O)cc2O)oc2cc(O)cc(O)c12 [morin] |  |
|  | O=c1c(O)c(-c2ccc(O)c(O)c2)oc2cc(O)cc(O)c12 [quercetin] | 11.3 µM |
